Experimental data published in PMC5442763, “Selective Inhibition of ADAM17 Efficiently Mediates Glycoprotein Ibα Retention During Ex Vivo Generation of Human Induced Pluripotent Stem Cell‐Derived Platelets” (Stem Cells Translational Medicine, 2016).

Experiments:
human ADAM10 = target: T1, human ADAM10 (Homo sapiens, UniProt O14672); assay: MMP and ADAM activity assay (fluorescence-based): ADAM10; type: biochemical; settings: cell-free fluorescence assay
T1 construct: purchased R&D Systems
Protocol: (§1) KP‐457 and GM‐6001 were tested for their ability to inhibit MMP‐ and ADAM‐catalyzed cleavage of substrates in a fluorescence‐based assay. Human ADAM17, ADAM10, and MMP17 were from R&D Systems (Minneapolis, MN, http://www.rndsystems.com), and human MMP1, MMP2, MMP3, MMP8, MMP9, MMP13, and MMP14 were from EMD Millipore. MMP1, MMP2, MMP8, MMP9, MMP13, and MMP17 were activated using p‐aminophenylmercuric acetate (Sigma‐Aldrich) before testing. Fluorogenic substrates for measuring activity of ADAM10 and ADAM17 [Nma‐[…](Dnp)r‐NH2, based on the cleavage site of TNF‐α]; MMP1, MMP9, MMP13, and MMP14 [Dnp‐P‐Cha‐GC(Me)HAK(N‐Me‐Abz)‐NH2]; MMP3 [MOCAc‐RPKPVE‐Nva‐WRK(Dnp)‐NH2]; and MMP2, MMP8, and MMP17 [MOCAc‐PLGL‐A2pr(Dnp)‐AR‐NH2] were all provided by Peptide Institute (Osaka, Japan, https://www.peptide.co.jp/en) and used as substrates. In addition, inhibitory activities were measured using LC/MS/MS with a GPIbα‐based substrate peptide ([…]), a C terminal‐based standard peptide ([…]), and an internal standard peptide ([…]). These peptides were synthetized by Scrum (Tokyo, Japan, http://www.scrum‐net.co.jp/english/top_en.htm).

human MMP8 = target: T2, human MMP8 (Homo sapiens, UniProt P22894); assay: MMP and ADAM activity assay (fluorescence-based): MMP8; type: biochemical; settings: cell-free fluorescence assay
T2 construct: purchased EMD Millipore
T2 sequence (P22894 101-467): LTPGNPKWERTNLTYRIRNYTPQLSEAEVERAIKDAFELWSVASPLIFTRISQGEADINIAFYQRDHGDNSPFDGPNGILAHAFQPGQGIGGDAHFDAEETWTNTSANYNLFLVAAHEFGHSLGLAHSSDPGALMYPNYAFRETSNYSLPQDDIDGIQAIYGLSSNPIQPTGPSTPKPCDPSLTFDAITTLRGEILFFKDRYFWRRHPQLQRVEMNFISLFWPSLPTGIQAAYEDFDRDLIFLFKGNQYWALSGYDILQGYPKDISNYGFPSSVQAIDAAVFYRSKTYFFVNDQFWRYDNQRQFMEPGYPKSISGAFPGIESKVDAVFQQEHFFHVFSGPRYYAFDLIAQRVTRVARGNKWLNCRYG
Excerpt: as §1, with “Human” for “KP‐457 and GM‐6001 were tested for their ability to inhibit MMP‐ and ADAM‐catalyzed cleavage of substrates in a fluorescence‐based assay. Human”

human MMP9 = target: T3, human MMP9 (Homo sapiens, UniProt P14780); assay: MMP and ADAM activity assay (fluorescence-based): MMP9; type: biochemical; settings: cell-free fluorescence assay
T3 construct: purchased EMD Millipore
T3 sequence (P14780 107-707 limits assumed): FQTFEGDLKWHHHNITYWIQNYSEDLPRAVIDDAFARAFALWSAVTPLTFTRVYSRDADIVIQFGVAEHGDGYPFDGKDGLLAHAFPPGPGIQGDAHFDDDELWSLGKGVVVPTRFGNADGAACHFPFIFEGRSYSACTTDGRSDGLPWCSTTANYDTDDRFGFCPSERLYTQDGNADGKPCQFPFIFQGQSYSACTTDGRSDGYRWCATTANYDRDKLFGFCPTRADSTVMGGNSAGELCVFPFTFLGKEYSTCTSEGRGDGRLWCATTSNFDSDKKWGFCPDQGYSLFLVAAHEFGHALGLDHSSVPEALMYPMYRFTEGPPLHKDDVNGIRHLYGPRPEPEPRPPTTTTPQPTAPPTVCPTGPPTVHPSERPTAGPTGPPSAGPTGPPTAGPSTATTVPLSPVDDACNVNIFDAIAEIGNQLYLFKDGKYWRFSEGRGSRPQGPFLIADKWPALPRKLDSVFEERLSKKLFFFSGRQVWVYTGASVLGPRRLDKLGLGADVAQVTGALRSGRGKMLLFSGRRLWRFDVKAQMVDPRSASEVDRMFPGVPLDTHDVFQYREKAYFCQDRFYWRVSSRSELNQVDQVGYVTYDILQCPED
Excerpt: as §1, with “Human” for “KP‐457 and GM‐6001 were tested for their ability to inhibit MMP‐ and ADAM‐catalyzed cleavage of substrates in a fluorescence‐based assay. Human”

human MMP14 = target: T4, human MMP14 (Homo sapiens, UniProt P50281); assay: MMP and ADAM activity assay (fluorescence-based): MMP14; type: biochemical; settings: cell-free fluorescence assay
T4 construct: purchased EMD Millipore
Protocol: as §1

human MMP17 = target: T5, human MMP17 (Homo sapiens, UniProt Q9ULZ9); assay: MMP and ADAM activity assay (fluorescence-based): MMP17; type: biochemical; settings: cell-free fluorescence assay
T5 construct: purchased R&D Systems
T5 sequence (Q9ULZ9 126-565 limits assumed): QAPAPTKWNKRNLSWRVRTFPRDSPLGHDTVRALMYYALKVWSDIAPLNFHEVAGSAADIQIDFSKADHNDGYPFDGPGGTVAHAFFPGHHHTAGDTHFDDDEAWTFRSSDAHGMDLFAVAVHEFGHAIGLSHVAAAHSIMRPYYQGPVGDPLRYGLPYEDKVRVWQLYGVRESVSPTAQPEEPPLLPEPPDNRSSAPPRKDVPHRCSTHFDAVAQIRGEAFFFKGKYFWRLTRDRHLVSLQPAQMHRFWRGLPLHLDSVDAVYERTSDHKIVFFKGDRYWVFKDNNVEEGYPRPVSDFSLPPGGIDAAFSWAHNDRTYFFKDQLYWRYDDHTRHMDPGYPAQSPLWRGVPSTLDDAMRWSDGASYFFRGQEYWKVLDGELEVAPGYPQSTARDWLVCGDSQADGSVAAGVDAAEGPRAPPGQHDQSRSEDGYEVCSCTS
Protocol: as §1

Human ADAM17 = target: T6, Human ADAM17 (Homo sapiens, UniProt P78536); assay: Cleavage of GPIbα-based substrate peptide by ADAM17 (LC/MS/MS); type: biochemical; settings: GPIbα-based substrate peptide, LC/MS/MS; read-out: IC50, inhibition of C-terminal cleavage of the GPIbα sequence by ADAM17
T6 construct: purchased R&D Systems
T6 sequence (P78536 215-824): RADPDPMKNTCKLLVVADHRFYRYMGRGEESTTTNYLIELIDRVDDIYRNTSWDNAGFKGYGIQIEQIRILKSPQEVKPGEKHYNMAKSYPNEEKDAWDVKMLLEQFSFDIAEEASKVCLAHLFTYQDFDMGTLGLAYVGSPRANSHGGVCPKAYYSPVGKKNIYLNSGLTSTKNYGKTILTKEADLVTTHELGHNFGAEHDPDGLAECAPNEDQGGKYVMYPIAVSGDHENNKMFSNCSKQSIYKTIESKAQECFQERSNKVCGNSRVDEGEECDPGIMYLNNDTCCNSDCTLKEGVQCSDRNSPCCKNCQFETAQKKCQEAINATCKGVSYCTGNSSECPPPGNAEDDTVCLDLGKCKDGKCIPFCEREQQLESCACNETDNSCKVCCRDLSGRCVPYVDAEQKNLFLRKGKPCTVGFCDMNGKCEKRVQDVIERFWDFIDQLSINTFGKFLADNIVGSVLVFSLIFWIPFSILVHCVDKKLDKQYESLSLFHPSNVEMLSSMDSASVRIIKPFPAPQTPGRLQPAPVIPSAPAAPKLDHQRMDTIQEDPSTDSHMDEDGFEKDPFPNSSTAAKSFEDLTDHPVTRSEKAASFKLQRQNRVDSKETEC
Excerpt: as §1, with “Human” for “KP‐457 and GM‐6001 were tested for their ability to inhibit MMP‐ and ADAM‐catalyzed cleavage of substrates in a fluorescence‐based assay. Human”
(1 picture or pasted object on this page, not shown here)

platelet aggregation = assay: Platelet aggregation induced by thrombin or collagen; type: cell-based
[1] = tested on: platelets derived from human ESCs; assay: GPIbα retention in platelets derived from human ESCs; type: cell-based; settings: KP-457 15 µmol/L
Protocol: Directed differentiation to MKs and platelets from iPSCs and ESCs was performed as described previously. Briefly, 3 × 10^4 HPCs derived from iPS‐sacs on C3H10T1/2 feeder cells in the presence of 20 ng/ml vascular endothelial growth factor were transferred on day 14 of culture onto C3H10T1/2 feeder cells in differentiation medium supplemented with 50 ng/ml stem cell factor, 100 ng/ml thrombopoietin, 25 U/ml heparin sodium, and test compounds at 24°C or 37°C. The medium was refreshed every 3 days, and nonadherent cells were collected and analyzed on days 22–24.
(§2) Flow cytometric analysis was performed as previously described. Briefly, iPSC‐ and ESC‐derived MKs on days 22–24 and platelets in their supernatants were stained with combinations of antibodies for 30 minutes on ice (for MKs) or at room temperature (for platelets). Samples of MKs/platelets were then washed, diluted with staining medium (phosphate‐buffered saline containing 3% fetal bovine serum), and analyzed using flow cytometry (FACSAria; BD). Trucount tubes (BD) were used to quantify the MKs and platelets.
Fig. S4. The inhibitory effect of KP-457 on GPIbα shedding in platelets derived from human
ESCs and immortalized megakaryocyte progenitor cell lines (imMKCLs).
Percentages of GPIbα-expressing CD41a+ platelets produced from human ESCs (A) and […]

imMKCL platelets = assay: GPIbα retention in imMKCL-derived platelets; type: cell-based, human
Protocol: imMKCL expansion and subsequent platelet production were performed as previously reported. Briefly, imMKCLs were cultured in the presence of doxycycline for self‐replication by the expression of three doxycycline‐regulated transgenes: c‐MYC, BMI1, and BCL‐XL. imMKCLs were subsequently cultured for 5 days in the absence of doxycycline to produce platelets by turning the transgenes off, with or without 15 µmol/l KP‐457.
as §2
Fig. S4. The inhibitory effect of KP-457 on GPIbα shedding in platelets derived from human ESCs and immortalized megakaryocyte progenitor cell lines (imMKCLs).
Percentages of GPIbα-expressing CD41a+ platelets produced from human ESCs (A) and immortalized megakaryocyte progenitor cell lines (imMKCLs) (B), in the absence or presence of KP-457 (15 µmol/L). * P < 0.05 compared to the vehicle group by student’s t test, N≧3. […]

dogs = assay: Good laboratory practice systemic toxicity study in dogs; type: in vivo; settings: intravenously once a day for 4 weeks, doses up to 3 mg/kg (maximal dose tested), data not shown

T1 sequence (O14672 214-748): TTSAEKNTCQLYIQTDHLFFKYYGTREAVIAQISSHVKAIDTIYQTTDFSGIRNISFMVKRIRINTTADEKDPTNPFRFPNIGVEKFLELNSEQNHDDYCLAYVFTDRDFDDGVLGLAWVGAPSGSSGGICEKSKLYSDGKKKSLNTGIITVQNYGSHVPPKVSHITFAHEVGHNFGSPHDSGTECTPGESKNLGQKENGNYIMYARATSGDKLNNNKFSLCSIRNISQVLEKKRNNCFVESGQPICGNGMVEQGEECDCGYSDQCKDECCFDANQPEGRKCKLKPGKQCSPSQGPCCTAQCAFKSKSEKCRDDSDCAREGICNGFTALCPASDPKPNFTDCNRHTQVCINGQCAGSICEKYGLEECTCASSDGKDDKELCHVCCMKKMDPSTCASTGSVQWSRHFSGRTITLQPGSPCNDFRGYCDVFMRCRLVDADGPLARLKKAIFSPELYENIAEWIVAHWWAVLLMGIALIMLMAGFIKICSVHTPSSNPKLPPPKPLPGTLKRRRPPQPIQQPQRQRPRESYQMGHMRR

Compound: CC#CCOc1ccc(S(=O)(=O)CC(c2ccc(CNS(C)(=O)=O)cc2)N(O)C=O)cc1 (centres unmarked) [KP-457, N‐(2‐{[4‐(but‐2‐yn‐1‐yloxy)phenyl]sulfonyl}‐1‐[4‐(methylsulfonamidomethyl)phenyl]ethyl)‐N‐hydroxyformamide]
- IC50 (human ADAM10): 748 nM
- IC50 (human MMP8): 2200 nM
- IC50 (human MMP9): 5410 nM
- IC50 (human MMP14): 2140 nM
- IC50 (human MMP17): 7100 nM
- IC50 (Human ADAM17): 10.6 nM
- effect on platelet aggregation induced by thrombin or collagen (platelet aggregation): no adverse effects
- GPIbα retention in platelets derived from human ESCs [1]: consistently observed
- GPIbα expression on platelets under static culture (imMKCL platelets; 3 days, 37°C, in the presence of KP-457, data not shown): highly maintained
- GPIbα retention in platelets derived from imMKCLs (imMKCL platelets; KP-457 15 µmol/L): consistently observed
- systemic toxicity (dogs): neither genotoxicity nor systemic toxicity
